Data reported in publication PMC6213900, “Design, Synthesis, and Cytotoxic Analysis of Novel Hederagenin–Pyrazine Derivatives Based on Partial Least Squares Discriminant Analysis” (International Journal of Molecular Sciences, 2018).

Tests used:
[1] = tested on: A549 (human non-small-cell lung cancer); test: MTT cytotoxicity assay, A549; type: cell-based; conditions: Homo sapiens, A549, 72 h treatment, read-out: Half Maximal Inhibitory Concentration (IC50) A549
Protocol: (§1) The cytotoxicity of hederagenin derivatives in vitro was evaluated on three tumor cell lines (A549: human non-small-cell lung cancer; MCF-7: human mammary cancer; HepG2: human hepatocellular carcinoma) using the 3-(4,5-dimethylthiazol-2-yl)-2,5-diphenyltetrazolium bromide (MTT) assay. In addition, their toxicity evaluations were tested on H9c2 (murine heart myoblast) and MDCK (Madin–Darby canine kidney) cells. MCF-7, A549, HepG2, H9c2, and MDCK cells were obtained from the Chinese Academy of Medical Sciences and Peking Union Medical College. All of the cell lines were maintained in Dulbecco’s modified Eagle medium (DMEM) supplemented with 1% (v/v) penicillin/streptomycin and 10% (v/v) fetal bovine serum (FBS; Thermo Technologies, New York, NY, USA) under a humidified atmosphere containing 5% CO2 at 37 °C. The stock solutions of He derivatives were dissolved in dimethyl sulfoxide (DMSO; Sigma, St. Louis, MO, USA) and added at various concentrations to the cell culture. Cellular morphologies were observed using an inverted fluorescence microscope (Olympus IX71, Tokyo, Japan), a plate reader (BIORAD 550 spectrophotometer, Bio-rad Life Science Development Ltd., Beijing, China), and a Canton 2 flow cytometer (BD, New York, NY, USA). The antitumor activity of these compounds were evaluated on MCF-7, A549, HepG2, MDCK, and H9c2 cell lines using the MTT assay. Cells at a density of 3 × 10^3 cells/well were plated in a 96-multiwell plate in DMEM containing 10% FBS for 24 h at 37 °C with 5% CO2. Then, cells were treated for 72 h with the required concentrations (3.125, 6.25, 12.5, 25, or 50 μM) of the compounds and reference drugs (He and DDP) dissolved with the vehicle DMSO. After that, the culture substrate was replaced with 200 μL of DMEM containing 20 μL of MTT solution at 5 mg/mL and incubated for 4 h. The supernatant was removed and the dissolved formazans precipitated with 120 μL of DMSO. Wells without drugs were used as blanks. A plate reader was used to determine the absorbance at 490 nm. The above steps were repeated three times. The IC50 values were defined as the concentration of the compound which gave 50% growth inhibition, and they were calculated using Graph Pad Prism 5. The inhibition rate was calculated using the following formula, where OD is the optical density:% inhibition = 1 − (Sample group OD/Control group OD) × 100%. (1)

[2] = tested on: MCF-7 (human mammary cancer); test: MTT cytotoxicity assay, MCF-7; type: cell-based; conditions: Homo sapiens, MCF7, 72 h treatment, read-out: Half Maximal Inhibitory Concentration (IC50) MCF-7
Protocol: as §1

[3] = tested on: HepG2 (human hepatocellular carcinoma); test: MTT cytotoxicity assay, HepG2; type: cell-based; conditions: Homo sapiens, HepG2; MTT, 72 h treatment; read-out: Half Maximal Inhibitory Concentration (IC50) HepG2
Protocol: as §1

[4] = tested on: MDCK (Madin–Darby canine kidney) cells; test: MTT toxicity evaluation, MDCK; type: cell-based; conditions: Canis lupus familiaris, MDCK, 72 h treatment, non-tumor cells, read-out: Half Maximal Inhibitory Concentration (IC50) MDCK
Protocol: as §1

[5] = tested on: H9c2 (murine heart myoblast); test: MTT toxicity evaluation, H9c2; type: cell-based; conditions: H9c2, 72 h treatment, non-tumor cells, read-out: Half Maximal Inhibitory Concentration (IC50) H9c2
Protocol: as §1

For `Cc1ncc(C(=O)OC[C@@]2(C)C3CC[C@]4(C)C(CC=C5C6CC(C)(C)CC[C@]6(C(=O)OCCCCCl)CC[C@]54C)[C@@]3(C)CC[C@@H]2O)nc1C` (stereo partly drawn) [Compound 25, ((3S,4R,6aR,6bS,8aS,14bR)-8a-((4-Chlorobutoxy)carbonyl)-3-hydroxy-4,6a,6b,11,11,14b-hexamethyl-1,2,3,4,4a,5,6,6a,6b,7,8,8a,9,10,11,12,12a,14,14a,14b-icosahydropicen-4-yl)methyl 5,6-dimethylpyrazine-2-carboxylate], the IC50 [1] was over 30 µM, the IC50 [2] was 15.6 ± 1.41 µM and the IC50 [3] was 6.42 ± 0.24 µM. The IC50 [4] was over 30 µM, the IC50 [5] was over 30 µM and the melting point was 123.6 °C.
Work on `Cc1nc(C)c(C(=O)OC[C@@]2(C)C3CC[C@]4(C)C(CC=C5C6CC(C)(C)CC[C@]6(C(=O)OCCCCCl)CC[C@]54C)[C@@]3(C)CC[C@@H]2O)nc1C` (stereo partly drawn) [Compound 26, ((3S,4R,6aR,6bS,8aS,14bR)-8a-((4-Chlorobutoxy)carbonyl)-3-hydroxy-4,6a,6b,11,11,14b-hexamethyl-1,2,3,4,4a,5,6,6a,6b,7,8,8a,9,10,11,12,12a,14,14a,14b-icosahydropicen-4-yl)methyl 3,5,6-trimethylpyrazine-2-carboxylate] yielded an IC50 [1] of over 30 µM, an IC50 [2] of 18.3 ± 1.16 µM and an IC50 [3] of 7.15 ± 0.85 µM. The IC50 [4] was over 30 µM, the IC50 [5] was over 30 µM and the melting point was 168.1 °C.
